# Source: ChEMBL document CHEMBL5579870, “Integrating Neuroprotective and Anti-inflammatory Strategies in the Development of PI3K Inhibitors for Enhanced Cancer Therapy” (ACS Med Chem Lett, 2024)
# Tests used:
# [1] = Cytotoxicity against human SK-BR-3 cells expressing wild type PI3Kalpha assessed as inhibition of cell proliferation measured after 72 hrs by CellTiter-Glo reagent based assay; type: toxicity
# [2] = tested on: T47D; assay: Antiproliferative activity against human T47D cells expressing PI3Kalpha H1047R mutant assessed as inhibition of cell proliferation measured after 72 hrs by CellTiter-Glo reagent based assay; type: functional
# [3] = AUC(last) in CD-1 mouse at 10 mg/kg, po by LC/MS/MS analysis; type: ADME, organism-based; details: in vivo
# [4] = Oral bioavailability in CD-1 mouse at 10 mg/kg by LC/MS/MS analysis; type: ADME, organism-based; details: in vivo
Structure (SMILES),EC50 at 72 h [1] [nM],EC50 [2] [nM],AUC(0-t) [3] [ng·h/mL],bioavailability [4] [%]
Cc1cc(C(C)Nc2ccc(F)cc2C(=O)O)c2nc(N3CCN(CC(F)(F)F)CC3)n(C)c(=O)c2c1 (stereo not drawn),2000,1,,
Cc1cc(C(C)Nc2ccc(Cl)cc2C(=O)O)c2nc(N3Cc4ccc(F)cc4C3)n(C)c(=O)c2c1 (stereo not drawn),2000,1,,
Cc1cc(C(C)Nc2ccccc2C(=O)O)c2nc(N3Cc4ccc(C#N)cc4C3)n(C)c(=O)c2c1 (stereo not drawn),> 15000,1,,
Cc1cc(C(C)Nc2ccccc2C(=O)O)c2nc(N3CC[Si](C)(C)CC3)n(C)c(=O)c2c1 (stereo not drawn),2000,500,,
CC(Nc1ccccc1C(=O)O)c1cc(Cl)cc2c(=O)n(C)c(N3CCN(CC(F)(F)F)CC3)nc12 (stereo not drawn),> 15000,500,,
CC(Nc1ccccc1C(=O)O)c1cc(C(F)(F)F)cc2c(=O)n(C)c(N3CCN(CC(F)(F)F)CC3)nc12 (stereo not drawn),2000,500,,
CC(Nc1ccc(F)cc1C(=O)O)c1cc(F)cc2c(=O)n(C)c(N3CCN(CC(F)(F)F)CC3)nc12 (stereo not drawn),> 15000,1,,
Cc1cc(C(C)Nc2ccc(F)cc2C(=O)O)c2nc(N3CCC(C)(C)CC3)n(C)c(=O)c2c1 (stereo not drawn),2000,1,10700,61
